Data set [1] in a line: Pharmacokinetic / brain penetration studies in mice. Format: in vivo. The settings on record: for Kp / Kp uu: male, CD-1, mouse; for Kp: brain / plasma. Here is the method:
Pharmacokinetic studies were performed on male CD-1 mice aged 8-10 weeks. Mice were dosed as indicated in duplicates. At the time points, whole blood was obtained by retro-orbital bleeding and brain tissue was harvested. Blood samples were centrifuged to obtain plasma and brain tissue was washed and homogenized. Samples were extracted with acetonitrile and supernatant was dried using a speed-vac. Dried samples were solubilized in 50:50:0.1 acetonitrile:water:formic acid and quantified on an Agilent 6400 series Triple Quadrupole LC/MS.
Disclosed in table 5 Brain to plasma percentages and unbound ratios of drugs in brain to plasma of indicated drugs in non-tumor bearing mice

In the next data set the test system is HK301. Kind of data set: GI50 assay (Cell Titer Glo proliferation, 3 days). The data set is classed as cell-based, human. Conditions: for GI50: Homo sapiens, 72 h, HK301, 3 days, read-out: HK301 GI50. (In general: ATP-based viability assays read luminescence as a measure of living cells.)
Data set [2] is described as follows: Protein binding (fraction unbound in blood and brain).
A further data set deals with GBM39. Description: GI50 assay (Cell Titer Glo proliferation, 3 days). The data set is classed as cell-based, human. The settings on record: for GI50: Homo sapiens, 72 h, GBM39, 3 days.
Where [3] appears, read: Table 5, unbound ratios of drugs in brain to plasma, non-tumor bearing mice.
Setting [4] is: Table 4, unbound partition coefficient of the brain and plasma, at equilibrium.

Regarding `Fc1c(Br)cccc1Nc1ncnc2cc3c(cc12)OC(CN1CCOCC1)CO3` (racemic) [JGK063, (±)-N-(3-Bromo-2-fluorophenyl)-7-[(morpholin-4-yl)methyl]-7,8-dihydro[1,4]dioxino[2,3-g]quinazolin-4-amine], in data set [1] (non-tumor bearing mice), the Kp (commonly tissue or fluid exposure divided by exposure in the circulation) is 0.725. For the same compound, the GI50 (as a rule, the concentration at which growth is held to half of that of the control) in the data set with HK301 turned out to be 816 nM; in the data set on GBM39 it was 3.43 µM. Also, in data set [2] (blood), the “Bound (blood)” value amounted to 91.96%. Moreover, the fraction unbound (as a rule, the share of the substance not bound to proteins or other matrix) worked out at 0.0804 in data set [2] (blood, Fu (blood)) and 0.0378 in data set [2] (brain, Fu (brain)). Further, the “Bound (brain)” value in data set [2] (brain) is 96.22%.

Regarding `CN(C)CC1COc2cc3ncnc(Nc4cccc(Br)c4F)c3cc2O1` (racemic) [JGK066, (±)-N-(3-Bromo-2-fluorophenyl)-7-[(dimethylamino)methyl]-7,8-dihydro[1,4]dioxino[2,3-g]quinazolin-4-amine], the Kp in data set [1] (non-tumor bearing mice) stood at 2.74. The results for the GI50 with HK301 and with GBM39 were 734 nM and 2.4 µM, respectively. The “Bound (blood)” value in data set [2] (blood) is 92.96%. Moreover, the fraction unbound in data set [2] (blood, Fu (blood)) was 0.0704; in data set [2] (brain, Fu (brain)), 0.0302. In addition, the “Bound (brain)” value in data set [2] (brain) was determined as 96.98%.

Compound `CN1CCN(CC2COc3cc4ncnc(Nc5cccc(Br)c5F)c4cc3O2)CC1` (racemic) [JGK068, (±)-N-(3-Bromo-2-fluorophenyl)-7-[(4-methylpiperazin-1-yl)methyl]-7,8-dihydro[1,4]dioxino[2,3-g]quinazolin-4-amine] showed a Kp in data set [1] (non-tumor bearing mice) of 3.54. Moreover, the GI50 with HK301 amounted to 577 nM; with GBM39, 1.61 µM. The “Bound (blood)” value in data set [2] (blood) was determined as 93.69%. Besides, the fraction unbound in data set [2] (blood, Fu (blood)) is 0.0631; in data set [2] (brain, Fu (brain)), 0.0211. In data set [2] (brain), the “Bound (brain)” value turned out to be 97.89%.

On to `C#Cc1cccc(Nc2ncnc3cc4c(cc23)OCCO4)c1` [JGK005], for which the “CNS penetration (oral pharmacokinetics)” value in data set [1] (FIG. 1, oral, JGK005 10 mg/kg, erlotinib 25 mg/kg) is “good CNS penetration compared to erlotinib”. Also, in data set [1] (non-tumor bearing mice), the Kp is 0.648. Also, in data set [1] (setting [3]), the Kp uu came to 0.491. Also, in the data set on HK301 (FIG. 2, HK301), the “activity against EGFR mutant glioblastoma HK301 compared with erlotinib” value is “lower activity than erlotinib”. Also, the GI50 with HK301 is 8820 nM; in the data set on GBM39, 20.5 µM. The “Bound (blood)” value in data set [2] (blood) was 98.65%. Further, the fraction unbound in data set [2] (blood, Fu (blood)) turned out to be 0.0135; in data set [2] (brain, Fu (brain)), 0.0102. Further, the “Bound (brain)” value in data set [2] (brain) amounted to 98.98%. Besides, the “activity against EGFR mutant glioblastoma GBM39 compared with erlotinib” value with GBM39 (FIG. 2, GBM39) was “lower activity than erlotinib”.

Turning to `Fc1cccc(Nc2ncnc3cc4c(cc23)OCCO4)c1F` [JGK028], in data set [1] (non-tumor bearing mice), the Kp came to 1.06. In data set [1] (setting [4]), the Kp uu amounted to 1.04. The GI50 in the data set with HK301 came out at 1690 nM; in the data set on GBM39, 5.57 µM. Further, in data set [2] (blood), the “Bound (blood)” value is 98.56%. For the same compound, the fraction unbound came to 0.0144 in data set [2] (blood, Fu (blood)) and 0.0141 in data set [2] (brain, Fu (brain)). Moreover, the “Bound (brain)” value in data set [2] (brain) is on record as 98.59%.

Take `Fc1c(Br)cccc1Nc1ncnc2cc3c(cc12)OCCO3` [JGK037, N-(3-Bromo-2-fluorophenyl)-7,8-dihydro[1,4]dioxino[2,3-g]quinazolin-4-amine]: in data set [1] (non-tumor bearing mice), the Kp was 2.12. The compound also had a Kp uu in data set [1] (setting [4]) of 1.3. Besides, the values for the GI50 in the data set with HK301 and in the data set on GBM39 were 329 nM and 1.12 µM, respectively. Further, the “Bound (blood)” value in data set [2] (blood) is 98.30%. In addition, the fraction unbound came out at 0.017 in data set [2] (blood, Fu (blood)) and 0.0104 in data set [2] (brain, Fu (brain)). Also, in data set [2] (brain), the “Bound (brain)” value was found to be 98.96%.

Turning to `C#Cc1cccc(Nc2ncnc3cc4c(cc23)OCCO4)c1F` [JGK038, N-(3-Ethynyl-2-fluorophenyl)-7,8-dihydro[1,4]dioxino[2,3-g]quinazolin-4-amine], the partition ratio (Kp) in data set [1] (non-tumor bearing mice) turned out to be 0.843. Besides, the Kp uu in data set [1] (setting [3]) amounted to 0.575. Also, the GI50 with HK301 was determined as 791 nM; in the data set with GBM39, 2.95 µM. For the same compound, the “Bound (blood)” value in data set [2] (blood) is given as 98.70%. For the same compound, the fraction unbound amounted to 0.013 in data set [2] (blood, Fu (blood)) and 0.0089 in data set [2] (brain, Fu (brain)). In data set [2] (brain), the “Bound (brain)” value was 99.11%.

With `Fc1c(I)cccc1Nc1ncnc2cc3c(cc12)OCCO3` [JGK042], the “Kpuu (Avg)” value in data set [1] (setting [3]) worked out at 1.033. For the same compound, the Kp uu in data set [1] (setting [4]) worked out at 1.03. Moreover, the GI50 in the data set with HK301 was 2290 nM; in the data set on GBM39, 4.52 µM. Further, the “Bound (blood)” value in data set [2] (blood) is on record as 98.15%. The fraction unbound in data set [2] (blood, Fu (blood)) amounted to 0.0185; in data set [2] (brain, Fu (brain)) it was 0.0114. Also, the “Bound (brain)” value in data set [2] (brain) came out at 98.86%.

For `N#Cc1cccc(Nc2ncnc3cc4c(cc23)OCCO4)c1F` [JGK044, 3-[(7,8-Dihydro[1,4]dioxino[2,3-g]quinazolin-4-yl)amino]-2-fluorobenzonitrile], the GI50 in the data set on HK301 worked out at 4520 nM; with GBM39, 5.63 µM.

`N#Cc1cccc(Nc2ncnc3cc4c(cc23)OCCO4)c1` [JGK045, 3-[(7,8-Dihydro[1,4]dioxino[2,3-g]quinazolin-4-yl)amino]benzonitrile]: the values for the GI50 in the data set on HK301 and in the data set on GBM39 were 3940 nM and 10.9 µM, respectively.

`Fc1c(Nc2ncnc3cc4c(cc23)OCCO4)ccc(Cl)c1Br` [JGK053, N-(3-Bromo-4-chloro-2-fluorophenyl)-7,8-dihydro[1,4]dioxino[2,3-g]quinazolin-4-amine]: the GI50 came to 2780 nM in the data set on HK301 and 5.28 µM in the data set with GBM39.

As for `Fc1c(Nc2ncnc3cc4c(cc23)OCCO4)ccc(Br)c1Br` [JGK054, N-(3,4-Dibromo-2-fluorophenyl)-7,8-dihydro[1,4]dioxino[2,3-g]quinazolin-4-amine], the GI50 with HK301 amounted to 5720 nM; with GBM39, 7.7 µM.

As for `Fc1ccc(Br)cc1Nc1ncnc2cc3c(cc12)OCCO3` [JGK055, N-(5-Bromo-2-fluorophenyl)-7,8-dihydro[1,4]dioxino[2,3-g]quinazolin-4-amine], the values for the GI50 with HK301 and with GBM39 were 290 nM and 0.966 µM, respectively.

Consider `Fc1ccc(Br)c(F)c1Nc1ncnc2cc3c(cc12)OCCO3` [JGK056, N-(3-Bromo-2,6-difluorophenyl)-7,8-dihydro[1,4]dioxino[2,3-g]quinazolin-4-amine], for which the values for the GI50 with HK301 and in the data set on GBM39 were 419 nM and 1.36 µM, respectively.

Turning to `Fc1ccc(Nc2ncnc3cc4c(cc23)OCCO4)c(F)c1Br` [JGK057, N-(3-Bromo-2,4-difluorophenyl)-7,8-dihydro[1,4]dioxino[2,3-g]quinazolin-4-amine], the GI50 with HK301 came out at 1380 nM; in the data set with GBM39 it was 9.36 µM.

Turning to `Fc1c(Br)cc(Cl)cc1Nc1ncnc2cc3c(cc12)OCCO3` [JGK058, N-(3-Bromo-5-chloro-2-fluorophenyl)-7,8-dihydro[1,4]dioxino[2,3-g]quinazolin-4-amine], the values for the GI50 in the data set with HK301 and with GBM39 were 1850 nM and 13 µM, respectively.

`Fc1c(Nc2ncnc3cc4c(cc23)OCCO4)ccc(Cl)c1Cl` [JGK060, N-(3,4-Dichloro-2-fluorophenyl)-7,8-dihydro[1,4]dioxino[2,3-g]quinazolin-4-amine]: the GI50 is 2950 nM with HK301 and 3.5 µM in the data set on GBM39.

Turning to `Fc1cc(Br)c(F)c(Nc2ncnc3cc4c(cc23)OCCO4)c1` [JGK061, N-(3-Bromo-2,5-difluorophenyl)-7,8-dihydro[1,4]dioxino[2,3-g]quinazolin-4-amine], the figures for the GI50 with HK301 and in the data set with GBM39 were 1130 nM and 1.73 µM, respectively.

On to `CN(C)C[C@H]1COc2cc3ncnc(Nc4cccc(Br)c4F)c3cc2O1` [JGK066S], for which the GI50 was 301 nM in the data set with HK301 and 2.63 µM in the data set on GBM39.

In data set [1] (setting [4]), `CN1CCN(C[C@@H]2COc3cc4ncnc(Nc5cccc(Br)c5F)c4cc3O2)CC1` [JGK068R] returned a Kp uu of 1.05. Also, the GI50 with HK301 turned out to be 1400 nM; in the data set with GBM39 it was 3.38 µM. For the same compound, the “Bound (blood)” value in data set [2] (blood) worked out at 94.67%. Moreover, the fraction unbound is 0.0533 in data set [2] (blood, Fu (blood)) and 0.0157 in data set [2] (brain, Fu (brain)). Also, the “Bound (brain)” value in data set [2] (brain) was found to be 98.43%.

With `CN1CCN(C[C@H]2COc3cc4ncnc(Nc5cccc(Br)c5F)c4cc3O2)CC1` [JGK068S, (7S)—N-(3-Bromo-2-fluorophenyl)-7-[(4-methylpiperazin-1-yl)methyl]-7,8-dihydro[1,4]dioxino [2,3-g]quinazolin-4-amine], in data set [1] (non-tumor bearing mice), the Kp was determined as 3.78. The GI50 with HK301 came out at 440 nM; in the data set with GBM39 it was 1.21 µM. Further, the “Bound (blood)” value in data set [2] (blood) was found to be 94.04%. The fraction unbound in data set [2] (blood, Fu (blood)) was determined as 0.0596; in data set [2] (brain, Fu (brain)), 0.0186. For the same compound, the “Bound (brain)” value in data set [2] (brain) is 98.14%.

Consider `Fc1c(Br)cccc1Nc1ncnc2c(F)c3c(cc12)OCCO3` [JGK071, N-(3-Bromo-2-fluorophenyl)-10-fluoro-7,8-dihydro[1,4]dioxino[2,3-g]quinazolin-4-amine], for which the results for the GI50 in the data set on HK301 and with GBM39 were 5750 nM and 10.3 µM, respectively.

On to `Fc1c(Br)cccc1Nc1ncnc2cc3c(c(F)c12)OCCO3` [JGK072, N-(3-Bromo-2-fluorophenyl)-5-fluoro-7,8-dihydro[1,4]dioxino[2,3-g]quinazolin-4-amine], for which the GI50 with HK301 stood at 5020 nM; in the data set on GBM39, 12 µM.

For `Brc1cccc(Nc2ncnc3cc4c(cc23)OCCO4)c1` [JGK073], the values for the GI50 in the data set on HK301 and with GBM39 were 2060 nM and 6.07 µM, respectively.

Turning to `CN1CCN(CC2COc3cc4ncnc(Nc5cccc(Br)c5)c4cc3O2)CC1` (stereo not drawn) [JGK074], the Kp in data set [1] (non-tumor bearing mice) stood at 1.66. The GI50 with HK301 was determined as 2280 nM; with GBM39 it was 6.67 µM.

For `OC[C@H]1COc2cc3ncnc(Nc4cccc(Br)c4F)c3cc2O1` [JGK082S], the GI50 was found to be 1670 nM in the data set with HK301 and 1.89 µM with GBM39.

For the origin of these results see patent publication US11377451B2, “Compositions and methods for treating cancer” (The Regents of the University of California, priority 2019, dated 2022).
